Laboratory results: US12522597B2, “Methods and compositions for modulating splicing” (Skyhawk Therapeutics, Inc., priority 2019, dated 2026)
pEC50: −log10 of the molar value.

Assays:
[1] = system: MDR1-MDCK cell monolayers; assay: MDCK-MDR1 permeability assay (BBB penetration potential); type: in vitro ADME; details: dog, MDCK-MDR1, 120 min, 5 μM, pH 7.4
Method: (§1) Each determination is performed in duplicate. […] Analytical conditions are outlined below.

[2] = system: MDR1; assay: as above; type: in vitro ADME; details: dog; for efflux ratio at 120 min, 5 μM: MDCK-MDR1, pH 7.4, MDCK-MDR1: Efflux; for Papp A→B at 120 min, 5 μM: MDCK-MDR1, pH 7.4, MDCK-MDR1: Papp A-B; for Papp B→A at 120 min, 5 μM: MDCK-MDR1, pH 7.4, MDCK-MDR1: Papp B-A
Method: as §1

[3] = system: mHTT protein; assay: mHTT protein assay (2B7-MW1, Mesoscale Discovery); type: cell-based, human; details: GM04724 (CAG 70/20) Huntington's disease patient lymphoblast cells, 48 hours, 2B7-MW1 MSD; read-out: HTT Potency - Protein EC50 mHTT (average)
How it was run: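 mHTT levels were read with the 2B7-MW1 antibody pair (N17 and polyQ epitopes) on MSD after 48 h dosing, 10 μM–0.6 nM. Cells were GM04724 HD lymphoblasts (CAG 70/20). A replica plate was read by CTG for cell viability.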

SMILES | MDCK-MDR1: % Recov A-B [1] [%] | MDCK-MDR1: % Recov B-A [1] [%] | efflux ratio at 120 min, 5 μM [2] | Papp A→B at 120 min, 5 μM [2] [×10⁻⁶ cm/s] | Papp B→A at 120 min, 5 μM [2] [×10⁻⁶ cm/s] | pEC50 [3]
C[C@@]12CCC[C@@](C)(N1)[C@@H](F)[C@@H](Oc1ccc(-c3ccc(C#N)cc3O)nn1)C2 (single isomer, unassigned) [145-ENT2] | 89 | 100 | 8 | 7.75 | 58.9 | 5.00 to 6.30
Cn1cc(-c2ccc(-c3ccc(O[C@H]4C[C@]5(C)CC[C@@](C)(N5)[C@H]4F)nn3)c(O)c2)cn1 (single isomer, unassigned) [150-ENT1] | 77 | 85 | 4 | 7.55 | 27.9 | 7.00 to 7.29
C[C@]12CC[C@](C)(N1)[C@H](F)[C@H](Oc1ccc(-c3ccc(C#N)cc3O)nn1)C2 (single isomer, unassigned) [152-ENT1] | 88 | 98 | 5 | 11.6 | 59.4 | 5.00 to 6.30
C[C@@]12CC[C@@](C)(N1)[C@@H](F)[C@@H](Oc1ccc(-c3ccc(C#N)cc3O)nn1)C2 (single isomer, unassigned) [152-ENT2] | 92 | 100 | 5 | 10 | 53 | 5.00 to 6.30
C[C@]12CC[C@](C)(N1)[C@H](F)[C@H](Oc1ccc(-c3ccc(-n4cccn4)cc3O)nn1)C2 (single isomer, unassigned) [153-ENT1] | 67 | 76 | 5 | 7.44 | 34.4 | 7.00 to 7.29
C[C@@]12CC[C@@](C)(N1)[C@@H](F)[C@@H](Oc1ccc(-c3ccc(-n4cccn4)cc3O)nn1)C2 (single isomer, unassigned) [153-ENT2] | 60 | 71 | 3 | 7.16 | 24.7 | 7.30 to 7.80
CN(C)C(=O)c1cc2cc(O)c(-c3ccc(O[C@@H]4C[C@@]5(C)CCC[C@](C)(N5)[C@@H]4F)nn3)cc2o1 (single isomer, unassigned) [155-ENT1] | 90 | 95 | 16 | 3.71 | 59.4 | 5.00 to 6.30
CN(C)C(=O)c1cc2cc(O)c(-c3ccc(O[C@H]4C[C@]5(C)CCC[C@@](C)(N5)[C@H]4F)nn3)cc2o1 (single isomer, unassigned) [155-ENT2] | 102 | 102 | 17 | 3.84 | 63.7 | 5.00 to 6.30
Cn1ccc(=O)c2cc(O)c(-c3ccc(O[C@H]4C[C@]5(C)CCC[C@@](C)(N5)[C@H]4F)nn3)cc21 (stereo in doubt) [132-ENT2, 7-(6-(((1R,2R,3S,5S)-2-fluoro-1,5-dimethyl-9-azabicyclo[3.3.1]nonan-3-yl)oxy)pyridazin-3-yl)-6-hydroxy-1-methylquinolin-4(1H)-one] | 93 | 95 | 126 | 0.11 | 13.4 | 6.30 to 7.00
Oc1cc(-c2nnco2)c(F)cc1-c1ccc(O[C@@H]2C[C@H]3CC[C@H](N3)[C@@H]2F)nn1 (stereo in doubt) [142-ENT1, 4-fluoro-2-(6-(((1S,2S,3R,5R)-2-fluoro-8-azabicyclo[3.2.1]octan-3-yl)oxy)pyridazin-3-yl)-5-(1,3,4-oxadiazol-2-yl)phenol] | 98 | 103 | 6 | 6.9 | 41.8 | 7.00 to 7.29
